Here are results for five molecules from US8628762B2, “T-helper cell type 17 lineage-specific adjuvants, compositions and methods” (Icahn School of Medicine at Mount Sinai, priority 2008, dated 2014).

Test [1] has as its system Naïve CD4 T-cells. As to the kind of experiment: qPCR of lineage genes in naïve CD4 T-cells cultured with DCCM. The class given is cell-based, C57BL/6J mice. The text has this:
(§1) Naïve CD4 T cells were isolated first by sorting with MACS® CD4^+ beads (Miltenyi Biotech, Auburn, Calif.) according to manufacturer's instructions and then by fluorescence activated cell sorting (FACS) using a MoFlo™, Vantage, or Influx™ cell sorter for CD25^−CD44^lowCD62L^high cells using allophycocyanin (APC)-conjugated anti-CD25 monoclonal antibody (mAb) (clone PC61.5), FITC-conjugated CD62L mAb (clone MEL-14), and PE-Cy5-conjugated CD44 mAb (clone IM7) (all from eBioscience™, San Diego, Calif.). Cells were grown in complete IMDM (Gibco, Carlsbad, Calif.) supplemented with 10% FBS, 100 μg/mL penicillin, 100 μg/mL streptomycin, 2 mM L-glutamine, 10 mM HEPES, and 1 nM sodium pyruvate, and activated on 48-well tissue-culture plates which had been coated with 4 μg anti-CD3 (clone 2C11) for 3 h at 37° C., then washed 3 times with PBS. Cultures were supplemented with 2 μg/mL anti-CD28 (clone 37-51, a kind gift from J. Allison, Sloan-Kettering Cancer Center) and anti-IL-4 ascites (clone 11B11, a kind gift from T. Moran, Mount Sinai School of Medicine, ATCC number HB188) at 1:500. mAbs 2C11 and 37-51 were purified from hybridoma supernatants by BioXCell Company (West Lebanon, N.H.). When cultured with conditioned medium (CM) from BMDC, T cells were grown in 1:1 CM:fresh complete IMDM. […]
T cells cultured for 48 hours under the indicated conditions were lysed and RNA isolated by TRIzol® extraction (Invitrogen) according to manufacturer's instructions. […] Quantitative real-time, reverse transcription polymerase chain reaction (qPCR) was conducted on an ABI Prism® 7900 instrument (Applied Biosystems, Foster City, Calif.) with primer pairs and probes as follows. […]
Quantitative PCR was performed using TaqMan® quantitative PCR Master Mix at a concentration of 1× (Applied Biosystems). […] “Fold inductions” were calculated using the ΔΔCt method relative to T cells activated under neutral conditions (No cytokines or CM). […]

The test system of test [2] is Naïve CD4 T-cells. As to the kind of experiment: In vitro T-cell differentiation in DC conditioned medium, IL-17/IL-10 in supernatants by ELISA. The class given is cell-based, C57BL/6J mice. The procedure: Bone marrow (BM)-derived GM-CSF DC cultures were grown in RPMI supplemented with GM-CSF and 5% foetal bovine serum (FBS), plus 100 μg/mL penicillin, 100 μg/mL streptomycin, 2 mM L-glutamine, 10 mM HEPES, 1 nM sodium pyruvate, 1×MEM nonessential amino acids, and 2.5 μM β-mercaptoethanol (all from Sigma-Aldrich, St. Louis, Mo.), as previously dcseribed^1. Semi-adherent cells were harvested on ice on day 5 and re-plated immediately in fresh GM-CSF medium at 1×10^6 cells/well in 24-well tissue culture-treated plates. Soluble or phagocytic stimuli were added right away to the plates in the same medium and the cells were centrifuged for 2 min at 2000 rpm. Supernatants (conditioned medium, CM) were collected after 18 hours. LPS (from E. coli, serotype 055:B5, L-2880) was purchased from Sigma-Aldrich. BMDC were treated with various doses of soluble LPS or 2:1 A20 LPS blasts:DC to titrate the LPS such that levels of IL-6 produced by DC in response to these stimuli was similar. Soluble LPS was used at a final concentration of 1 ng/mL. The A20 B-cell line was obtained from the ATCC (TIB-208). A20 LPS blasts were prepared by culturing A20 cells at 1×10^6 cells/mL, 3 mL/well in 6-well tissue culture plates for four days in RPMI medium supplemented with 10% FBS, with 100 μg/mL penicillin, 100 μg/mL streptomycin, 2 mM L-glutamine, 10 mM HEPES, 1 nM sodium pyruvate, plus 25 μg/mL LPS, as previously described in Blander, J. M. and Medzhitov, R. (2004) Science 304(5673):1014. […] Cells were centrifuged, counted, and apoptosis was induced by UV irradiation at 350 mJ. […]
Naïve CD4 T cells were isolated first by sorting with MACS® CD4^+ beads (Miltenyi Biotech, Auburn, Calif.) according to manufacturer's instructions and then by fluorescence activated cell sorting (FACS) using a MoFlo™, Vantage, or Influx™ cell sorter for CD25^−CD44^lowCD62L^high cells using allophycocyanin (APC)-conjugated anti-CD25 monoclonal antibody (mAb) (clone PC61.5), FITC-conjugated CD62L mAb (clone MEL-14), and PE-Cy5-conjugated CD44 mAb (clone IM7) (all from eBioscience™, San Diego, Calif.). […]
In general terms: In an ELISA, binding on a coated surface is turned into a signal by an enzyme label.

Test [3] relates to Bone marrow DC. The experiment in a line: TGF-β bioassay of DC conditioned medium (MFB-F11 SBE-SEAP reporter cells). The class given is cell-based, mice. The procedure: Analysis of bioactive TGF-β was performed as previously described in Tesseur, I. et al. (2006) BMC Cell Biol 7: 15. MFB-F11 mouse fibroblast cells stably transfected with a reporter plasmid consisting of TGF-β-responsive Smad-binding elements coupled to a secreted alkaline phosphatase reporter gene (SBE-SEAP) were seeded at 3×10^4 cells/well in 96-well flat bottom tissue culture plates and cultured overnight in DMEM supplemented with 10% FBS and penicillin/streptomycin (DMEM/P/S). Cells were washed twice with PBS and incubated in 50 μL serum-free DMEM for 2 hours. Conditioned medium from DC was diluted 1:5 in serum-free DMEM/P/S and 5 μL was added to the MFB-F11 cells. For detection of total TGF-β, diluted conditioned medium was activated by adding 1.5 μL 6M HCl to 150 μL of sample and incubating 10 minutes at room temperature. Neutralization was performed by adding 1.5 μL 6M NaOH. […] SEAP activity was measured using Great EscAPe™ SEAP Reporter System 3 (Clontech, Mountain View, Calif.) according to the manufacturer's protocol with 96-well white/flat bottom plates. Luciferase activity was measured with a FLUOStar Optima reader (BMG Labtech, Durham, N.C.). For each sample, the concentration of biologically active TGF-β was calculated as follows: (luciferase activity of bio-active TGF-β/luciferase activity for total TGF-β)×100. […]

Test [4] deals with Naïve CD4 T-cells. The experiment in a line: CD4 T-cells in DCCM re-plated on anti-CD3 for 48 h with neutralizing mAbs or IL-23, cytokines by ELISA. The class given is cell-based, C57BL/6J mice. As to conditions: re-stimulation for 48 h in the presence of 10 ng/mL IL-23.
From the text: as §1, with “PBS.” for “PBS. Cultures were supplemented with 2 μg/mL anti-CD28 (clone 37-51, a kind gift from J. Allison, Sloan-Kettering Cancer Center) and anti-IL-4 ascites (clone 11B11, a kind gift from T. Moran, Mount Sinai School of Medicine, ATCC number HB188) at 1:500. mAbs 2C11 and 37-51 were purified from hybridoma supernatants by BioXCell Company (West Lebanon, N.H.). When cultured with conditioned medium (CM) from BMDC, T cells were grown in 1:1 CM:fresh complete IMDM.”
Next, naïve CD4 T-cells were isolated from C57BL/6J mice and activated with 4 μg anti-CD3 and 2 μg/mL anti-CD28 plus anti-IL-4 with CM from C57BL/6J (WT) BMDC that had phagocytosed apoptotic LPS B cell-blasts. […] Cytokines were quantified in supernatants by ELISA. […]

For TGF-β, the “Foxp3 mRNA induction” value in test [1] (quantitative RT-PCR) is listed as “highest induction”.

On to curdlan, for which, in test [2] (DC derived from MyD88−/−Trif−/− and Tlr4−/− mice, TGF-β concomitantly present), the “induction of IL-17+ CD4 T-cells” value is recorded as “able to direct induction of IL-17^+ CD4 T-cells”.

lipopolysaccharide [free LPS]: the “production of biologically active TGF-β by DC” value in test [3] is listed as “did not”. Moreover, in test [2] (three days in CM, with IFN-γ neutralizing antibody), the “IL-17 secreting CD4 T-cells” value was “some induction of IL-17 secreting (IL-17^+) CD4 T-cells”.

B1: IL-12: cytokine (eBioscience), 10 ng/mL (protein, UniProt P43431 23-215; P43432 23-335, looked up)
Interleukin-12 subunit alpha: RVIPVSGPARCLSQSRNLLKTTDDMVKTAREKLKHYSCTAEDIDHEDITRDQTSTLKTCLPLELHKNESCLATRETSSTTRGSCLPPQKTSLMMTLCLGSIYEDLKMYQTEFQAINAALQNHNHQQIILDKGMLVAIDELMQSLNHNGETLRQKPPVGEADPYRVKMKLCILLHAFSTRVVTINRVMGYLSSA
Interleukin-12 subunit beta: MWELEKDVYVVEVDWTPDAPGETVNLTCDTPEEDDITWTSDQRHGVIGSGKTLTITVKEFLDAGQYTCHKGGETLSHSHLLLHKKENGIWSTEILKNFKNKTFLKCEAPNYSGRFTCSWLVQRNMDLKFNIKSSSSSPDSRAVTCGMASLSAEKVTLDQRDYEKYSVSCQEDVTCPTAEETLPIELALEARQQNKYENYSTSFFIRDIIKPDPPKNLQMKPLKNSQVEVSWEYPDSWSTPHSYFSLKFFVRIQRKKEKMKETEEGCNQKGAFLVEKTSTEVQCKGGNVCVQAQDRYYNSSCSKWACVPCRVRS
With B1, in test [1] (qPCR after 48 hours of culture), the “expression of TH1 lineage-specific transcription factor T-bet” value is on record as “expressed the TH1 lineage-specific transcription factor”.

B2: IL-23: cytokine (eBioscience), 10 ng/mL (protein, UniProt Q9EQ14 22-196; P43432 23-335, looked up)
Interleukin-23 subunit alpha: VPRSSSPDWAQCQQLSRNLCMLAWNAHAPAGHMNLLREEEDEETKNNVPRIQCEDGCDPQGLKDNSQFCLQRIRQGLAFYKHLLDSDIFKGEPALLPDSPMEQLHTSLLGLSQLLQPEDHPRETQQMPSLSSSQQWQRPLLRSKILRSLQAFLAIAARVFAHGAATLTEPLVPTA
Interleukin-12 subunit beta: B1 Interleukin-12 subunit beta
With B2, in test [4], the “levels of IL-17 produced” value is “only slightly increased the levels of IL-17 produced” and the “total levels of IL-10 produced” value was “markedly impaired”.
